{
  "source": "patent US10098894B2",
  "about": "“Transdermal cream” (TherapeuticsMD, Inc., priority 2014, dated 2018)",
  "key": {"[1]": {"system": "endometrium and vagina in ovariectomized rats", "assay": "Estradiol-induced endometrium proliferation in ovariectomized rats (uterine weight, histology, histomorphometry)", "type": "in vivo, rat", "conditions": "for Uterine weight compared to estradiol-only treatment group: Days 4-8, with estradiol", "description": "Thirty-two 8-week-old, female, Crl:CD® rats underwent ovariectomy 2 weeks prior to the start of the study. Rats were randomly assigned to 4 groups of 8 rats each. Three of the groups received 3 μg/kg/day estradiol, subcutaneously (SC), for 8 days as well as a placebo cream, 10 mg/kg/day progesterone, SC, or 3.125 mg/day progesterone transdermally beginning on Day 4. The fourth group received saline, SC for 8 days and placebo cream beginning on Day 4. Two hours after the final dose on Day 8, the rats were humanely euthanized, uterine weights were measured, and the vagina and distal portions of the uterine horns were fixed and processed for histology and computer-aided morphometry. Study parameters are outlined in Table 22."}, "[2]": {"assay": "Progesterone solubility study in different solvent systems", "type": "physicochemical", "conditions": "thermodynamic from solid, room temperature, visual", "description": "Solubility of progesterone was determined on a visual basis by adding progesterone incrementally to a certain quantity of solvent at room temperature until a supersaturated solution was formed."}, "[3]": {"assay": "Exposure, tissue distribution and metabolite profile (progesterone, ALLO, ALLO-sulfate in plasma, salivary gland, uterus) in ovariectomized rats", "type": "in vivo", "conditions": "for Kp at 2 h: female, Crl:CD, uterus/plasma, read-out: Ratio of progesterone levels in the uterus to plasma; for Mean progesterone level in plasma / Mean progesterone level in salivary gland / Mean progesterone level in uterus: 2 hours after final dose Day 8", "description": "Thirty-two 8-week-old, female, Crl:CD® rats underwent ovariectomy 2 weeks prior to study start. […] Plasma and tissue homogenates were analyzed for progesterone, ALLO, and ALLO-sulfate using LC-MS/MS."}, "[4]": {"assay": "Progesterone solubility study in different solvent systems", "type": "physicochemical", "conditions": "oil or lipid, thermodynamic from solid; in CAPRYOL 90; solubility determined by HPLC"}},
  "note": "Like-named read-outs stand apart in the source and are kept apart here.",
  "data": [
    {"smiles": "C[C@]12CC[C@@H]3c4ccc(O)cc4CC[C@H]3[C@@H]1CC[C@@H]2O", "note": "[estradiol, (17β)-estra-1,3,5(10)-triene-3,17-diol]", "values": [
      {"measurement": "Effect of unopposed estradiol treatment on the uterus (organ weight, histology)", "setting": "[1]; 3 μg/kg/day SC, 8 days", "value": "hypertrophy"}
    ]},
    {"smiles": "CC(=O)[C@H]1CC[C@H]2[C@@H]3CCC4=CC(=O)CC[C@]4(C)[C@H]3CC[C@]12C", "note": "[progesterone, pregn-4-ene-3,20-dione]", "values": [
      {"measurement": "solubility", "setting": "[2]; aqueous with cosolvent or surfactant or cyclodextrin, in 5% SLS", "value": 6.6, "unit": "mg/mL"},
      {"measurement": "solubility", "setting": "[2]; oil or lipid, in CAPRYOL PGMC", "value": 82, "unit": "mg/mL"},
      {"measurement": "solubility", "setting": "[2]; oil or lipid, in GLYCEROX 767", "value": 22.2, "unit": "mg/mL"},
      {"measurement": "solubility", "setting": "[2]; oil or lipid, in LABRAFAC PG", "value": 41, "unit": "mg/mL"},
      {"measurement": "solubility", "setting": "[2]; oil or lipid, in LAUROGLYCOL 90", "value": 90.2, "unit": "mg/mL"},
      {"measurement": "solubility", "setting": "[2]; oil or lipid, in LAUROGLYCOL FCC", "value": 60, "unit": "mg/mL"},
      {"measurement": "solubility", "setting": "[2]; oil or lipid, in MIGLYOL 812 + D-L α Tocopherol Care (85:15)", "value": 38.2, "unit": "mg/mL"},
      {"measurement": "solubility", "setting": "[2]; oil or lipid, in MIGLYOL 812 + D-L α Tocopherol Care (95:5)", "value": 20.1, "unit": "mg/mL"},
      {"measurement": "solubility", "setting": "[2]; oil or lipid, in MIGLYOL 812 + LABRAFAC PG (50:50)", "value": 25.7, "unit": "mg/mL"},
      {"measurement": "solubility", "setting": "[2]; oil or lipid, in MIGLYOL 812 + LAUROGLYCOL 90 (25:75)", "value": 47, "unit": "mg/mL"},
      {"measurement": "solubility", "setting": "[2]; oil or lipid, in MIGLYOL 812 + LAUROGLYCOL 90 (50:50)", "value": 58.9, "unit": "mg/mL"},
      {"measurement": "solubility", "setting": "[2]; oil or lipid, in MIGLYOL 812 + TRANSCUTOL (92.5:7.5)", "value": 40.2, "unit": "mg/mL"},
      {"measurement": "solubility", "setting": "[2]; oil or lipid, in MIGLYOL 812 + TRANSCUTOL (95:5)", "value": 40.5, "unit": "mg/mL"},
      {"measurement": "solubility", "setting": "[2]; oil or lipid, in MIGLYOL 812 + Vitamin E TPGS (91:9)", "value": 45.2, "unit": "mg/mL"},
      {"measurement": "solubility", "setting": "[2]; oil or lipid, in MIGLYOL 812", "value": 25, "unit": "mg/mL"},
      {"measurement": "solubility", "setting": "[2]; oil or lipid, in MIGLYOL 829", "value": 41.3, "unit": "mg/mL"},
      {"measurement": "solubility", "setting": "[2]; oil or lipid, in MIGLYOL 840", "value": 41.7, "unit": "mg/mL"},
      {"measurement": "solubility", "setting": "[2]; oil or lipid, in Oleic Acid", "value": 62.2, "unit": "mg/mL"},
      {"measurement": "solubility", "setting": "[2]; oil or lipid, in Oleyl Alcohol", "value": 41.2, "unit": "mg/mL"},
      {"measurement": "solubility", "setting": "[2]; organic solvent or mixture, in Absolute Alcohol", "value": 57, "unit": "mg/mL"},
      {"measurement": "solubility", "setting": "[2]; organic solvent or mixture, in Dimethyl Isosorbide", "value": 92, "unit": "mg/mL"},
      {"measurement": "solubility", "setting": "[2]; organic solvent or mixture, in Propylene Glycol", "value": 10.5, "unit": "mg/mL"},
      {"measurement": "solubility", "setting": "[2]; organic solvent or mixture, in TRANSCUTOL", "value": 60.3, "unit": "mg/mL"},
      {"measurement": "solubility", "setting": "[2]; organic solvent or mixture, in d-Limonene + TRANSCUTOL (25:75)", "value": 95.6, "unit": "mg/mL"},
      {"measurement": "solubility", "setting": "[2]; organic solvent or mixture, in d-Limonene + TRANSCUTOL (40:60)", "value": 102, "unit": "mg/mL"},
      {"measurement": "solubility", "setting": "[2]; organic solvent or mixture, in d-Limonene + TRANSCUTOL (50:50)", "value": 100, "unit": "mg/mL"},
      {"measurement": "solubility", "setting": "[2]; organic solvent or mixture, in d-Limonene", "value": 204, "unit": "mg/mL"},
      {"measurement": "Endometrial gland density, transdermal as compared to SC progesterone", "setting": "[1]", "value": "significant increase"},
      {"measurement": "Uterine weight compared to estradiol-only treatment group", "setting": "[1]; progesterone 3.125 mg/day transdermally (formulation of Table 16)", "value": "pronounced reduction"},
      {"measurement": "Uterine weight compared to estradiol-only treatment group", "setting": "[1]; progesterone 10 mg/kg/day SC", "value": "pronounced reduction"},
      {"measurement": "Endometrial gland density compared to unopposed estradiol", "setting": "[1]; progesterone SC", "value": "significant increase"},
      {"measurement": "Luminal epithelial cell thickness compared to unopposed estradiol", "setting": "[1]; progesterone SC", "value": "significant reduction"},
      {"measurement": "Estrogen-specific cellular aspects in uterus and vagina (histology)", "setting": "[1]; progesterone SC with estradiol", "value": "not detected"},
      {"measurement": "Endometrial gland density compared to unopposed estradiol", "setting": "[1]; progesterone transdermally", "value": "significant increase"},
      {"measurement": "Luminal epithelial cell thickness compared to unopposed estradiol", "setting": "[1]; progesterone transdermally", "value": "significant reduction"},
      {"measurement": "Estrogen-specific cellular aspects in uterus and vagina (histology)", "setting": "[1]; progesterone transdermally with estradiol", "value": "not detected"},
      {"measurement": "Kp at 2 h", "setting": "[3]; 10 mg/kg/day, rat, SC route", "value": 7.3},
      {"measurement": "Kp at 2 h", "setting": "[3]; topical, 3.13 mg/rat/day, transdermal route", "value": 12},
      {"measurement": "Mean progesterone level in plasma", "setting": "[3]; rat, SC administration", "value": 5.4, "unit": "ng/mL/mg dose"},
      {"measurement": "Mean progesterone level in salivary gland", "setting": "[3]; rat, SC administration", "value": 5.9, "unit": "ng/mL/mg dose"},
      {"measurement": "Mean progesterone level in uterus", "setting": "[3]; rat, SC administration", "value": 39, "unit": "ng/mL/mg dose"},
      {"measurement": "Levels of ALLO in the plasma, comparison of both routes of administration", "setting": "[3]; rat, SC vs topical", "value": "similar"},
      {"measurement": "Sum of plasma levels of ALLO and ALLO-sulfate relative to plasma level of progesterone", "setting": "[3]; rat, after topical dosing", "value": "equivalent"},
      {"measurement": "Mean tissue levels of ALLO and ALLO-sulfate, SC administration compared to topical administration", "setting": "[3]; rat, all instances", "value": "higher"},
      {"measurement": "Mean progesterone level in plasma", "setting": "[3]; rat, topical administration (Table 16 formulation)", "value": 2.0, "unit": "ng/mL/mg dose"},
      {"measurement": "Mean progesterone level in salivary gland", "setting": "[3]; rat, topical administration", "value": 10, "unit": "ng/mL/mg dose"},
      {"measurement": "Mean progesterone level in uterus", "setting": "[3]; rat, topical administration", "value": 24, "unit": "ng/mL/mg dose"},
      {"measurement": "solubility", "setting": "[4]", "value": 112, "unit": "mg/mL"}
    ]}
  ]
}
